Results as given in patent publication US12326385B2, “Cell-permeable fluorogenic fluorophores” (MAX-PLANCK-GESELLSCHAFT ZUR FÖRDERUNG DER WISSENSCHAFTEN E. …, priority 2018, dated 2025).
Marks after values point to notes of the source that are not given here.

How the values were obtained:
SNAP-Halo-tag = assay: Increase in absorbance and fluorescence on binding to SNAP-HaloTag protein in vitro; format: biochemical; conditions: for Φ / ε^protein / λabs / λem: binding with SNAP-Halo-tag; for F/F0: ± s.e.m.
Protocol: Measurement of Increase in Absorbance and Fluorescence.
SNAP-HaloTag protein were used as a 85 μM-200 μM solution in 75 mM NaCl, 50 mM TRIS-HCl, pH 7.4 with 50% v/v glycerol (TBS-glycerol). SNAPTag and HaloTag based fluorogenic probes were diluted to 1.0-2.0 μM in 10 mM HEPES, pH 7.3. Then an aliquot of SNAPTag/HaloTag protein (1.5-2.0 equiv) was added and the resulting mixture was incubated until consistent absorbance signal was observed (˜60 min).
(§1) SDS (10% in 10 mM HEPES) was added with dilution of 100 folds as a control group. Absorbance and fluorescence measurements were performed in 96-well plate (Thermos Fisher) with optical bottom.

[1] = UV-Vis and fluorescence spectroscopy of free dye or probe in buffer or SDS; format: physicochemical; conditions: for Φ / ε^SDS: 0.1% SDS in HEPES buffer (pH 7.3); for ε: HEPES buffer (pH 7.3)
Protocol: UV-Vis and Fluorescence Spectroscopy
Spectroscopy was performed using 96-well plate (Thermo Fisher) with optical bottom. All measurements were taken at ambient temperature (25±2° C.). Absorption and fluorescence spectra were recorded on Spark® microplate reader (Tecan). Maximum absorption wavelength (λabs), and maximum emission wavelength (λem) were taken in 10 mM HEPES, pH 7.3 buffer unless otherwise noted; reported values for ε are averages (n=3). Normalized spectra are shown for clarity.
as §1

[2] = test system: U2OS FlpIn Halo-SNAP-NLS expressing cells; assay: No-wash live-cell confocal imaging, nuclear versus cytosol signal; format: cell-based; conditions: for signal and background in no-wash live-cell imaging: no washing; for Fnuc./Fcyt.: average ratio between nuclear signal (U2OS FlpIn Halo-SNAP-NLS expressing cells) and cytosol signal (normal U2OS cell), ± s.e.m.; for intracellular kinetics of labeling relative to control probe: nuclear localized SNAP-tag or HaloTag in U2OS cells
Source text: Self-labeling protein tags such as SNAP-tag and HaloTag are an efficient approach to attach synthetic fluorophores to proteins in living cells. The main challenge when using these tags for live-cell imaging is the low cell permeability of most fluorescent probes used for labeling and high background signal resulting from their unspecific binding. SNAP-tag fusion proteins can be specifically labeled with different fluorophores using appropriate O^6-benzlyguanine derivatives. A 6-TAMRA based probe (150) for SNAP-tag has been previously introduced for live-cell imaging, but its low cell-permeability and lack of fluorogenicity requires the use of high concentrations (5 μM) and repeated washing steps to remove excess and non-specifically bound probe. To address these problem, the inventors coupled fluorophores 132-135 to O^6-benzylguanine to obtain probes 152, 154, 156, and 158. […] The inventors then examined the performance of probes 150, 152, 154, 156, and 158 in live-cell imaging, in which U2OS cells stably expressing a nuclear localized SNAP-Halo fusion protein were co-cultured with regular U2OS cells not expressing any protein tags. […] Furthermore, the kinetics of labeling of nuclear localized SNAP-tag with MaP555-SNAP were much faster than those of control […]. The inventors then prepared the corresponding 6-TAMRA-based probes 151, 153, 155, 157, and 159 for HaloTag. As for SNAP-tag, the probe with the largest enhancement in absorbance (16-fold) and fluorescence intensity (35-fold) in in vitro assays was based on the N,N-dimethylsulfamide derivative 159 (abbreviated as MaP555-Halo in the following). […] The excellent performance of MaP555-SNAP and MaP555-Halo in live-cell imaging experiments support the inventors' assumption that establishing a dynamic equilibrium between the fluorescent zwitterion and the more hydrophobic spirolactam enables the generation of highly cell-permeable and fluorogenic probes for live-cell imaging.
Generation of U2OS FlpIn Halo-SNAP-NLS Cell Lines
The Flp-In™ System (ThermoFisher Scientific) was used to generated U2OS FlpIn Halo-SNAP-NLS expressing cells. pcDNA5-FRT-Halo-SNAP-NLS and pOG44 were co-transfected into the host cell line U2OS FLpIn (Malecki et al. Molecular and Cellular Biology 26, 4642 (2006)). Homologous recombination between the FRT sites in pcDNA5-FRT-Halo-SNAP-NLS and on the host cell chromosome, catalysed by the Flp recombinase expressed from pOG44, produced the U2OS FlpIn Halo-SNAP-NLS stably expressing cells.
Live-Cell Confocal Imaging
U2OS FlpIn Halo-SNAP-NLS expressing cells were grown in 96-well plate (Thermos Fisher) with optical bottom at 37° C. in a humidified 5% (vol/vol) CO2 environment. 50-500 nM probes and 2 μM verapamil were added and incubated for 1 h in DMEM media (Evrogen) containing 10% FBS. The cells were directly used to image without washing. Meanwhile, another group was imaged after being washed 2 times for 5 min with 1× phosphate buffered saline (PBS, pH 7.4) and DMEM supplemented with 10% FBS. Imaging was performed using Leica TCS SP8 confocal microscope. TMR- and Rhodamine B—, and Rhodamine 110-based probes were excited at 540 nm and the fluorescence signal was collected from 560-700 nm. Semi-Rhodamine-based probes were excited at 650 nm and the fluorescence signal was […] from 670-760 nm. Images were processed with Fiji (http://fiji.sc/wiki/index.php/Fiji) to obtain MIP (maximum intensity projections)

[3] = ratio of fluorescence intensities at 580 nm in the presence and absence of SNAP-Halo-tag
[4] = upon binding to SNAP-tag, in vitro
[5] = upon binding to HaloTag, in vitro
[6] = ratio of fluorescence intensities at 635 nm in the presence and absence of SNAP-Halo-tag

Φ (SNAP-Halo-tag) | ε^protein (SNAP-Halo-tag) | λabs (SNAP-Halo-tag) | λem (SNAP-Halo-tag) | Φ [1] | ε^SDS [1] | ε [1] | F/F0 (SNAP-Halo-tag; [3]) | increase in absorbance at 555 nm (SNAP-Halo-tag; [4]) | increase in intensity of fluorescence emission at 580 nm (SNAP-Halo-tag; [4]) | increase in absorbance (SNAP-Halo-tag; [5]) | increase in fluorescence intensity (SNAP-Halo-tag; [5]) | F/F0 (SNAP-Halo-tag; [6]) | SMILES | fluorogenicity on binding to tag or target protein (SNAP-Halo-tag; in vitro) | F/F0 (SNAP-Halo-tag; ratio of fluorescence intensities at 720 nm in the presence and absence of SNAP-Halo-tag) | signal and background in no-wash live-cell imaging ([2]; U2OS cells) | Fnuc./Fcyt. [2] | nuclei to cytosol signal ratio (Fnuc/Fcyt) ([2]; no-wash live-cell imaging, U2OS cells, 250 nM for MaP555-SNAP and MaP700-Halo) | intracellular kinetics of labeling relative to control probe [2]
0.42 | 66,000 M^−1cm^−1 | 555 nm | 578 nm | 0.61 | 82,000 M^−1cm^−1 | 22,000 M^−1cm^−1 | 7.9 ± 0.2^e | – | – | – | – | – | CN(C)c1ccc2c(-c3cc(C(=O)NCc4ccc(COc5nc(N)nc6[nH]cnc56)cc4)ccc3C(=O)[O-])c3ccc(=[N+](C)C)cc-3oc2c1 [compound 150, reference compound] | – | – | barely detectable signal | 1.8 ± 0.1^f | – | –
0.51 | 82,000 M^−1cm^−1 | 555 nm | 578 nm | 0.68 | 87,000 M^−1cm^−1 | 58,000 M^−1cm^−1 | 1.8 ± 0.1^e | – | – | – | – | – | CN(C)c1ccc2c(-c3cc(C(=O)NCCOCCOCCCCCCCl)ccc3C(=O)O)c3ccc(=[N+](C)C)cc-3oc2c1 [compound 151, reference compound] | – | – | – | 9.4 ± 1.7^f | – | –
0.33 | 68,000 M^−1cm^−1 | 558 nm | 580 nm | 0.58 | 82,000 M^−1cm^−1 | 18,000 M^−1cm^−1 | 18 ± 2.6^e | – | – | – | – | – | CN(C)c1ccc2c(c1)Oc1cc(N(C)C)ccc1C21c2cc(C(=O)NCc3ccc(COc4nc(N)nc5[nH]cnc45)cc3)ccc2C(=O)N1C#N [compound 152] | – | – | – | 8.1 ± 0.9^f | – | –
0.46 | 71,000 M^−1cm^−1 | 557 nm | 580 nm | 0.71 | 79,000 M^−1cm^−1 | 15,000 M^−1cm^−1 | 7.3 ± 0.8^e | – | – | – | – | – | CN(C)c1ccc2c(c1)Oc1cc(N(C)C)ccc1C21c2cc(C(=O)NCCOCCOCCCCCCCl)ccc2C(=O)N1C#N [compound 153] | – | – | – | 10 ± 0.4^f | – | –
0.38 | 65,000 M^−1cm^−1 | 558 nm | 580 nm | 0.65 | 86,000 M^−1cm^−1 | 15,000 M^−1cm^−1 | 9.7 ± 0.1^e | – | – | – | – | – | CN(C)c1ccc2c(c1)Oc1cc(N(C)C)ccc1C21c2cc(C(=O)NCc3ccc(COc4nc(N)nc5[nH]cnc45)cc3)ccc2C(=O)N1S(C)(=O)=O [compound 154] | – | – | – | 7.9 ± 0.9^f | – | –
0.56 | 85,000 M^−1cm^−1 | 559 nm | 580 nm | 0.66 | 95,000 M^−1cm^−1 | 40,000 M^−1cm^−1 | 3.7 ± 0.4^e | – | – | – | – | – | CN(C)c1ccc2c(c1)Oc1cc(N(C)C)ccc1C21c2cc(C(=O)NCCOCCOCCCCCCCl)ccc2C(=O)N1S(C)(=O)=O [compound 155] | – | – | – | 12 ± 2.6^f | – | –
0.46 | 57,000 M^−1cm^−1 | 557 nm | 578 nm | 0.62 | 89,000 M^−1cm^−1 | 9,800 M^−1cm^−1 | 13 ± 2.4^e | – | – | – | – | – | CN(C)c1ccc2c(c1)Oc1cc(N(C)C)ccc1C21c2cc(C(=O)NCc3ccc(COc4nc(N)nc5[nH]cnc45)cc3)ccc2C(=O)N1S(N)(=O)=O [compound 156] | – | – | – | 9.8 ± 0.8^f | – | –
0.56 | 87,000 M^−1cm^−1 | 558 nm | 580 nm | 0.65 | 91,000 M^−1cm^−1 | 9,600 M^−1cm^−1 | 19 ± 3.2^e | – | – | – | – | – | CN(C)c1ccc2c(c1)Oc1cc(N(C)C)ccc1C21c2cc(C(=O)NCCOCCOCCCCCCCl)ccc2C(=O)N1S(N)(=O)=O [compound 157] | – | – | – | 14 ± 0.7^f | – | –
0.46 | 54,000 M^−1cm^−1 | 556 nm | 576 nm | 0.61 | 88,000 M^−1cm^−1 | 3,500 M^−1cm^−1 | 21 ± 3.2^e | 15 fold | 21 fold | – | – | – | CN(C)c1ccc2c(c1)Oc1cc(N(C)C)ccc1C21c2cc(C(=O)NCc3ccc(COc4nc(N)nc5[nH]cnc45)cc3)ccc2C(=O)N1S(=O)(=O)N(C)C [compound 158] | – | – | – | 15 ± 2.9^f | 15 | much faster
0.54 | 87,000 M^−1cm^−1 | 558 nm | 578 nm | 0.63 | 92,000 M^−1cm^−1 | 5,200 M^−1cm^−1 | 35 ± 2.3^e | – | – | 16 fold | 35 fold | – | CN(C)c1ccc2c(c1)Oc1cc(N(C)C)ccc1C21c2cc(C(=O)NCCOCCOCCCCCCCl)ccc2C(=O)N1S(=O)(=O)N(C)C [compound 159] | – | – | much lower background signal | 18 ± 2.9^f | – | about two-fold faster
0.53 | 144,000 M^−1cm^−1 | 618 nm | 635 nm | 0.72 | 70,000^c M^−1cm^−1 | 1,500 M^−1cm^−1 | – | – | – | – | – | 112 ± 3.8^e | CN(C)c1ccc2c(c1)C(C)(C)c1cc(N(C)C)ccc1C21c2cc(C(=O)NCCOCCOCCCCCCCl)ccc2C(=O)N1C#N [compound 161] | – | – | – | 19 ± 1.2^f | – | –
0.50 | 121,000 M^−1cm^−1 | 618 nm | 635 nm | 0.76 | 45,000^c M^−1cm^−1 | 1,600 M^−1cm^−1 | – | – | – | – | – | 179 ± 14^e | CN(C)c1ccc2c(c1)C(C)(C)c1cc(N(C)C)ccc1C21c2cc(C(=O)NCCOCCOCCCCCCCl)ccc2C(=O)N1S(C)(=O)=O [compound 163] | – | – | – | 24 ± 1.8^f | – | –

SMILES | Φ (SNAP-Halo-tag) | ε^protein (SNAP-Halo-tag) | λabs (SNAP-Halo-tag) | λem (SNAP-Halo-tag) | Φ [1] | ε^SDS [1] | ε [1] | F/F0 (SNAP-Halo-tag; [3]) | increase in absorbance at 555 nm (SNAP-Halo-tag; [4]) | increase in intensity of fluorescence emission at 580 nm (SNAP-Halo-tag; [4]) | increase in absorbance (SNAP-Halo-tag; [5]) | increase in fluorescence intensity (SNAP-Halo-tag; [5]) | F/F0 (SNAP-Halo-tag; [6]) | fluorogenicity on binding to tag or target protein (SNAP-Halo-tag; in vitro) | F/F0 (SNAP-Halo-tag; ratio of fluorescence intensities at 720 nm in the presence and absence of SNAP-Halo-tag) | signal and background in no-wash live-cell imaging ([2]; U2OS cells) | Fnuc./Fcyt. [2] | nuclei to cytosol signal ratio (Fnuc/Fcyt) ([2]; no-wash live-cell imaging, U2OS cells, 250 nM for MaP555-SNAP and MaP700-Halo) | intracellular kinetics of labeling relative to control probe [2]
CN1CCc2cc3c(cc21)[Si](C)(C)c1cc2c(cc1C31OC(=O)c3ccc(C(=O)NCCOCCOCCCCCCCl)cc31)CCN2C [compound 37, reference compound] | 0.27 | 83,000 M^−1cm^−1 | 695 nm | 718 nm | 0.25 | 85,000^c M^−1cm^−1 | 38,000 M^−1cm^−1 | – | – | – | – | – | – | only modest fluorogenicity | 7.5 ± 0.2^e | relatively high background signal | 6.7 ± 1.5^f | – | –
